# Experimental data from patent publication US20070128669A1, “Serum-free expansion of cells in culture” (Institute for Chemical Genomics, priority 2005, published 2007).
# Assays:
# Stat3 signaling pathway = assay: pSTAT3-TA-Luc luciferase reporter assay in ESCs; assay type: cell-based, mouse; conditions: 24 hours exposure
# Method: Transfection and Luciferase assay. ESCs were cultured in 96-well cell culture dishes coated with a 0.1% aqueous gelatin solution and transfected with 0.2 μg/well of pSTAT3-TA-Luc (CLONTECH), using Lipofectamine 2000 (Invitrogen). After 6 hours, cells were washed and exposed to either IQ-1 at the indicated doses, or LIF, for 24 hours. Transfection efficiencies were normalized with pRL-null luciferase plasmid. Luciferase assays were performed with the DUAL-Luciferase Reporter Assay System (Promega).
# CBP/β-catenin complex = target: T1, CBP/β-catenin complex (Mus musculus, UniProt P45481); assay: Co-immunoprecipitation of β-catenin with CBP in P19 cells; assay type: cell-based; conditions: Wnt3a, 10 μM, 24 hours
# T1 construct: endogenous in cells; host or cells: P19 cells (nuclear fraction)
# T1 sequence (P45481 2-2441 limits assumed, one chain of several): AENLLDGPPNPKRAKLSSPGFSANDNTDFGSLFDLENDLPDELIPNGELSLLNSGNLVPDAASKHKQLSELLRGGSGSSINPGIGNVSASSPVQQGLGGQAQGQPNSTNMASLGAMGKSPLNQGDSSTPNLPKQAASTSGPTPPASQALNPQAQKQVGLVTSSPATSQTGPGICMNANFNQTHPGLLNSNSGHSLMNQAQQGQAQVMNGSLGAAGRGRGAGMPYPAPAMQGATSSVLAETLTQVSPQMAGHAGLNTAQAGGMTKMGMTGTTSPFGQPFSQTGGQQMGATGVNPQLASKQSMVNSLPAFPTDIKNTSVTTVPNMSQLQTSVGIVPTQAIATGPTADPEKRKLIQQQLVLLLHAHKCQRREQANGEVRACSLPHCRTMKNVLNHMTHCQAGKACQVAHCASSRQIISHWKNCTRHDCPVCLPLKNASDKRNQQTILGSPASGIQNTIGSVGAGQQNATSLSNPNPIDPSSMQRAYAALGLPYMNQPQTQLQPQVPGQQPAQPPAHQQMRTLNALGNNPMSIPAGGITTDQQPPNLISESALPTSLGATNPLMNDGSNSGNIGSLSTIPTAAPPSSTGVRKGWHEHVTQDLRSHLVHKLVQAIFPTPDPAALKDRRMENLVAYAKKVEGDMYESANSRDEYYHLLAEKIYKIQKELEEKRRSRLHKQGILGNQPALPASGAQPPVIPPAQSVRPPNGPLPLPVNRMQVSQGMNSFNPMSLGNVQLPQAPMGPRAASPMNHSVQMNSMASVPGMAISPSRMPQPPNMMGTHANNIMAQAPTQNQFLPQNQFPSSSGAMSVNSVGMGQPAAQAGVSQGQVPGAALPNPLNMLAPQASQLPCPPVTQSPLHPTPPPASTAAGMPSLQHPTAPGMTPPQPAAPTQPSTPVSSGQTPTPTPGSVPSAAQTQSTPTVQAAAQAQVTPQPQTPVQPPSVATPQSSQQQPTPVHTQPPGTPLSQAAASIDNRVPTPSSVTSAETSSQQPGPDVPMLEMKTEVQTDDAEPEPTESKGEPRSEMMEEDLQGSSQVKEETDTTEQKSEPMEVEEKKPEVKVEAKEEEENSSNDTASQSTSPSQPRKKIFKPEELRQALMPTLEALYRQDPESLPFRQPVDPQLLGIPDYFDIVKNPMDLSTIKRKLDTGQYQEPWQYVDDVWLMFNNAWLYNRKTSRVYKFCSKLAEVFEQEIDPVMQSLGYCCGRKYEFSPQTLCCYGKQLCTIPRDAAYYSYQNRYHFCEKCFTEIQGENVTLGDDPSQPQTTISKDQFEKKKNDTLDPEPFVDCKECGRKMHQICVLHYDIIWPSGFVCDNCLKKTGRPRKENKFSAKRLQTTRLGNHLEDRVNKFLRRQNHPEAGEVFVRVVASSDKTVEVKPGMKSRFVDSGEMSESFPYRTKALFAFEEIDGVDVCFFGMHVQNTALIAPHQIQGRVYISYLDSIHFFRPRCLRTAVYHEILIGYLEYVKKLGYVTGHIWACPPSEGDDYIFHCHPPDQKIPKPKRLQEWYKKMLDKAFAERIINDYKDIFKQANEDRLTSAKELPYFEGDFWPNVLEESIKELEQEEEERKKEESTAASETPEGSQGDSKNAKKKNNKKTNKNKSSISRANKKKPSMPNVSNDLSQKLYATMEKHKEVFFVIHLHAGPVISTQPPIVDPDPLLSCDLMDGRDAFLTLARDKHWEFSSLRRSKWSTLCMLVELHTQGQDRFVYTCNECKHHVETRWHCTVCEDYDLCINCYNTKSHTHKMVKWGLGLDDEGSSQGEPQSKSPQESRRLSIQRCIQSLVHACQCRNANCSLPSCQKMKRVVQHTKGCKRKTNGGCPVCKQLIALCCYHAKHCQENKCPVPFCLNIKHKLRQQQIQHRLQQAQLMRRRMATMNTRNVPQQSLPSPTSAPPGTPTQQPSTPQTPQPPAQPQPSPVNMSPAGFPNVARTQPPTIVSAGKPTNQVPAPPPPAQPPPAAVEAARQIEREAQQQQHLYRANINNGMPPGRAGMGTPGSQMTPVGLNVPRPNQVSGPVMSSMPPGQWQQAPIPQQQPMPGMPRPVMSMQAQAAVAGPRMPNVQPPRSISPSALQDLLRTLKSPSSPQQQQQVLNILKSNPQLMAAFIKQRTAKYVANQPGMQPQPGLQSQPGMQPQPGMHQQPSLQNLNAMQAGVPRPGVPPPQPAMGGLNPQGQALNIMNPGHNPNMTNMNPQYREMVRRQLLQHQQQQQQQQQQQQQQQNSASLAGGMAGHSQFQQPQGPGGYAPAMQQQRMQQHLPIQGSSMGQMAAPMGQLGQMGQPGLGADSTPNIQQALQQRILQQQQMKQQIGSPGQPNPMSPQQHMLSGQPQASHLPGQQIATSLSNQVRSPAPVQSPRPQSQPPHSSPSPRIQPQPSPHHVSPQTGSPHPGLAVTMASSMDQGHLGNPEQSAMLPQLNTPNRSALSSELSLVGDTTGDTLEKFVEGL
# Method: (§1) Co-immunoprecipitation of β-catenin with CBP or p300 in P19 cells. Co-immunoprecipitation was performed as described in (27). Briefly, P19 cells were treated with 10 μM ICG-001 or 10 μM IQ-1 (control DMSO was 0.025%) for 24 hours, after which they were washed and lysed […]. Nuclear fraction was isolated and precleared with antibodies to CBP(A-22) or p300(N-15). β-catenin was detected using a mouse monoclonal antibody (Becton Dickinson) at a dilution of 1:5000.
# [1] = test system: p300 Ser89 phosphorylation; assay: Immunoblot of p300 and phospho-serine89-p300 in P19 cells; assay type: cell-based; conditions: Wnt3a stimulated P19 cells, 10 μM, 24 hours
# Method: Detection of CBP, p300, and phospho-serine89-p300 in P19 cells. P19 cells exposed to either Wnt3A or vehicle control, after which IQ-1 was added to a final concentration of 10 μM. Control DMSO was 0.025%. Cells were incubated for 24 hours. At the end of this incubation period, cells were washed, lysed and subjected to SDS-PAGE. CBP and p300 were detected using the rabbit polyclonal antibody (A-22)(1:5000); and (C-20)(1:5000) (Santa Cruz), respectively. Phospho-serine89-p300 was detected using custom antisera at a dilution of 1:100.
# Murine ESCs (D3 ES) [2] = assay: Alkaline phosphatase activity of ESCs (compound screen); assay type: cell-based, mouse; conditions: media containing 15% FCS, without exogenous LIF
# Method: Cell culture. ESCs, D3ES (ATCC CRL-1934) were maintained on Mitomycin C treated MEFs in mouse ESC medium containing DMEM (Invitrogen) supplemented with 15% FBS (Invitrogen), 0.1 mM MEM nonessential amino acids (Invitrogen), 0.1 mM 2-mercaptoethanol (Sigma), 2 mM L-glutamine (Invitrogen) and 1,000 U/ml LIF (CHEMICON). To remove MEFs, cells were collected by trypsinization and plated on gelatin-coated culture dishes for 20 min. Non-adherent cells consisting mainly of ESCs were replated on gelatin-coated culture dishes again. Non-adherent cells were used for further experiments. P19 cells were cultured according to conditions recommended by the ATCC. Cells were incubated at 37° C. in a 5% CO2 incubator. Purified Wnt3a was purchased (R&D Systems).
# Compound Screens. For the small molecule screen, alkaline phosphatase activity of ESCs was determined. ESCs were plated into 96-well tissue culture plates (Falcon) at a density of 316-1,000 cells per well in ESC medium without LIF. Compounds were added at a final concentration of 4 μg/ml. Cells were treated with compounds for 7 days and test cell populations were washed with PBS and 100 μl of p-nitrophenyl phosphate solution (MOSS Inc.) was added. The absorbance at 405 nm was measured by spectrophotometer (Spectramax, Molecular Devices).
# p300/β-catenin complex = assay: Co-immunoprecipitation of β-catenin with p300 in P19 cells; assay type: cell-based; conditions: Wnt3a, 10 μM, 24 hours
# Method: as §1
# P19 cells = assay: Real-time RT-PCR of stem cell maintenance genes in P19 cells; assay type: cell-based; conditions: Wnt3a and IQ-1 vs Wnt3a+DMSO, from the control gene β-actin
# Method: (§2) Real-time RT-PCR. Total RNA was isolated and reverse-transcribed using SuperScript III (Invitrogen). Real-time RT-PCR (Sybr Green; BioRad) was performed using with the gene-specific primers: […]
# In certain experiments, 2 μg of extracted total RNA was reverse-transcribed using SuperScript III RT-PCR system (Invitrogen) according to the manufacturer's protocol. 1 μl of cDNA was amplified by PCR with one or more of the gene-specific primers of SEQ ID NOs:5-18 using optimized PCR cycles to obtain amplified reactions in the linear range.
# In Table 1, above, the effects of IQ-1 treatment on genes associates with stem cell maintenance are shown, as measured by RT-PCR. The values are represented as ΔΔCT from the control gene β-actin.
# [3] = test system: Nanog gene expression in ESCs; assay: Real-time RT-PCR for Nanog in feeder-free ESCs; assay type: cell-based, mouse
# Method: FIG. 2. […] Real-time RT-PCR for Nanog was performed. The control expression level of Nanog at day 0 was set at 1. FIG. 2B, removal of IQ-1 decreases Nanog gene expression in ESCs. IQ-1 was removed from ESCs which had been cultured under feeder-free system and in the presence of IQ-1 (4 μg/ml), for three days. At the end of this period, mRNA was isolated and real-time RT-PCR was performed to assay for Nanog gene expression. FIG. 2C, effects of IQ-1 were not mediated through Stat3 signaling pathway as judged by luciferase reporter assay. Feeder-free ESCs, transfected with the pSTAT3-TA-Luc reporter, were exposed to IQ-1 at the indicated doses, or LIF. All error bars represent mean±SD.
# as §2
# Murine ESCs (D3 ES) [4] = assay: SSEA-1 expression of ESCs by flow cytometry; assay type: cell-based, mouse; conditions: 7 days after addition of IQ-1
# Method: Flow Cytometry. Analysis of SSEA-1 expression of ESCs was performed by flow cytometry according to Zandstra et al. (35). The test cell population was washed in ice cold Hanks balanced salt solution (Invitrogen) containing 2% FCS(HF) and resuspended for 10 min in HF containing anti-mouse CD16/CD32 monoclonal antibody at 1 μg/100 μl (Pharmingen) to block nonspecific binding. Blocked cells were then incubated at 1×10^7 cells/ml for 40 min on ice with anti-SSEA-1 (Kyowa Medex) followed by FITC-Goat anti Mouse IgM antibody (ZYMED). Cells to be analyzed for their SSEA-1 expression were then washed twice in HF with 2 μg/ml propidium iodide (Dojindo) added into the final wash. The cells were then resuspended in HF for analysis on a FACS Calibur (Becton Dickinson).
compound,measurement,setting,value
CC(=O)c1ccc(NN=C(C(N)=O)C2=NC(C)(C)Cc3ccccc32)cc1 [IQ-1],Stat3/luciferase expression,Stat3 signaling pathway,did not affect Stat3/luciferase expression
same,relative amount of β-catenin associated with CBP,CBP/β-catenin complex,dramatic increase
same,phosphorylation level of p300 Ser89,[1],dramatic decrease
same,total amount of p300,[1],not affected
same,Alkaline Phosphatase (AP) activity,Murine ESCs (D3 ES) [2],dose dependently increased AP activity
same,p300/β-catenin interaction,p300/β-catenin complex,at the expense of the p300/β-catenin complex
same,ΔΔCT MDR-1,P19 cells,1.69
same,ΔΔCT Oct4,P19 cells,0.39
same,ΔΔCT Sox-2,P19 cells,4.31
same,ΔΔCT c-myc,P19 cells,−2.01
same,Nanog level after removal of IQ-1 from culture,[3]; IQ-1 (4 μg/ml) removed for three days,precipitous drop in Nanog level
same,Nanog expression,"[3]; feeder-free ESCs, IQ-1 4 μg/ml or LIF 1000 U/ml, 21 hrs",significantly increased and maintained Nanog expression
same,SSEA-1 expression,Murine ESCs (D3 ES) [4],enhanced expression
